Results reported in a melting point compilation (Tetko et al.; mined from patent text by program, amines drawn as free bases though some values may be those of a salt).

Compound | melting point
CNC(=O)CN1CCc2cc(Nc3ncc(Cl)c(Nc4ccc(N5CCOCC5)cc4OC)n3)c(OC)cc2CC1 | 113 to 130 °C
O=C1c2cc([N+](=O)[O-])ccc2OC12CC2 | 107 to 110 °C
Cc1cc(Cc2cnc(NCCCCc3ncc(Br)cc3C)[nH]c2=O)cnc1C | 126 to 128 °C
Cc1cnc(CNC(=O)CCc2cnoc2-c2ccc(Cl)cc2)cn1 | 124 to 125 °C
CCOc1cc2ncc(C#N)c(NCc3cccc(Br)c3)c2cc1OCC | 156 to 159 °C
OCC1CN(Cc2ccccc2)CC=C1c1ccc(F)cc1 (single isomer, unassigned; (+)) | 68 to 68.5 °C
CNC(=O)Nc1ccc(Oc2cccc(C(F)(F)F)c2)c(Cl)c1 | 160 °C
CN(C)c1cc2c(cc1O)CCC1C2CCC2(C)C(=O)CCC12 (stereo unspecified) | 160 to 161 °C
COC(=O)c1ccc(N2CCN(C)CC2)cc1 | 117 to 119 °C
Cc1cc(-c2ccc(Cl)cc2)cn2cc(C(=O)NC(Cc3ccc(OCc4ccccc4)cc3)C(=O)O)nc12 (stereo unspecified) | 249 to 250 °C
CC(C)c1ccc2nc3ccc(C(=O)NCCCCc4cccnc4)cc3c(=O)n2c1 | 247 to 249 °C
CCn1cc(C(=O)O)c(=O)c2cc(F)c(N3CCC(CNC(C)C)C3)nc21 (stereo unspecified) | 302 to 304 °C
CN(C)S(=O)(=O)c1cc2cc(C(=O)O)oc2c(Cl)c1Cl | 242 to 245 °C
O=C(Nc1cc2cn[nH]c2cc1Cl)c1ccccc1NCc1ccncc1 | 223 °C
O=C(Nc1cccc(OC(F)(F)F)c1)Nc1ccccc1CCO | 160 to 161 °C
COC(=O)C(Oc1ccc(Cl)cc1)c1ccc(OCOc2ccc(Cl)cc2)cc1 (stereo unspecified) | 64 to 65 °C
NC(=O)c1cc2ccccc2cc1NC(=S)NC(=O)c1ccccc1 | 220 to 223 °C
CNC(=NC#N)NCCCn1cc(C2=C(c3cn(C)c4ccccc34)C(=O)NC2=O)c2ccccc21 | 190 to 193 °C
CCOP(=O)(OCC)C1CCc2cc(C(F)(F)F)cc3[nH]c(=O)c(=O)n1c23 (stereo unspecified) | 161 °C
CC(C#N)CCC(=O)O (stereo unspecified) | 31.9 to 32.6 °C
Nc1cc(Cl)c(F)cc1-c1cccc(Cl)c1 | 58 °C
C[C@H]1[C@@H](C#N)CCN1c1ccc(C#N)c2ccccc12 | 143 to 145 °C
O=C(O)c1ccc(Oc2ccccc2Oc2ccc(C(=O)O)cc2)cc1 | 255 to 257 °C
CC12C=CC(=O)NC1CCc1cc(Cl)ccc12 (stereo unspecified) | 151 to 154 °C
CCCP(=O)(O)CCCN | 210 to 213 °C
COC(=O)c1cc2cc(C(=O)c3cccc(C(C)C#N)c3)sc2s1 (stereo unspecified) | 163 °C

Compound | melting point
CC1=C(C(=O)OC(C)(C)C)C(c2ccccc2[N+](=O)[O-])C(C(=O)OC(C)(C)C)=C(C)N1 | 159 to 161 °C
CC(C)NC(=O)C[C@@H]1CCCNc2ccccc21 | 91 to 92 °C
CCOC(=O)C(=O)CC(=O)c1cn(Cc2cccc(F)c2)c2ccccc2c1=O | 174 to 175 °C
O=c1c2ccsc2ccn2ccnc12 | 267 °C
Cc1c(NC(=O)c2ccc(OCC3CCCO3)cc2)ccc2cc(CNCC(C)(C)O)cnc12 (stereo unspecified) | 138 °C
CCc1cccc(Nc2ncnc3cc(OCCOC)c(OCCOC)cc23)c1 | 72 to 74 °C
CN1CCC(=C2c3ccccc3C3=C(c4ccccc42)C2(C)C=CC3O2)CC1 (stereo unspecified) | 175 to 177 °C
O=S(=O)(NCCCN1CCC(Oc2ccc(F)c(F)c2)CC1)c1ccc(-c2ccccn2)s1 | 128 to 129 °C
C[C@@H](O)[C@](O)(Cn1cncn1)c1ccc(F)cc1F (racemic) | 115 to 117 °C
CC(=O)N1CCc2cc(S(=O)(=O)C[N+](=O)[O-])ccc21 | 210 °C
Cn1c(=O)nc(Sc2ccccc2)sc1=S | 116 to 118 °C
O=C(O)c1ccc(-c2nc(-c3ccc(Cl)s3)cs2)cc1 | 283 to 284 °C
CNC1([C@@H]2CCN(c3c(F)cc4c(=O)c(C(=O)O)cn([C@@H]5C[C@@H]5F)c4c3C)C2)CC1 | 211 to 212 °C
CCCCCCCCCCCCCCN=C=S | 77 to 79 °C
CS(=O)(=O)c1ccc(C(=O)C2C(=O)CCC(S(C)(=O)=O)C2=O)c(Cl)c1 (stereo unspecified) | 175 to 180 °C
N#CC1Cc2ccc(N)cc2C1 (stereo unspecified) | 73 to 76 °C
COc1ccccc1C1CC(=O)c2c(C)coc2C1 (stereo unspecified) | 79 to 80 °C
CCOC(=O)C1=Cc2cc(-c3ccc(OCC)cc3)ccc2OCC1 | 124 to 127 °C
CC(=O)N1CCC(C(=NN)c2ccc(F)cc2F)CC1 | 139 to 142 °C
CN(C)C1CCC(c2c[nH]c3ccc(NC(=N)c4cccs4)cc23)CC1 (stereo unspecified) | 104 to 106 °C
COC(=O)N1CCc2c(O)noc2C1 | 136 to 138 °C
CCCN1C(=O)CC(C)(C)c2cc(C)c(-c3cc(C=C4SC(=O)NC4=O)ccc3N(C)C)cc21 | 258 to 260 °C
O=C(CCCC1CCCCC1)N[C@H]1CO[C@H]2[C@@H]1OC[C@@H]2NC(=O)C1CC1 | 182 °C
Cc1nc(C(C)(C)C)ccc1/C=C/C(=O)Nc1ccc2cc[nH]c2c1 | 182 °C
O=C1Nc2cccnc2N(C(=O)CCCl)c2ccccc21 | 216 to 218 °C
Cc1ncc(C(=O)N2CC2C#N)s1 (stereo unspecified) | 90 to 92 °C

Compound | melting point
Cn1cnc2nc(-c3cc(Cl)c(Cl)cc3C(=O)O)nn2c1=S | 298 to 300 °C
CC12CCC(=O)C=C1CCC1C2C2CC3(C(O)O2)C(C(=O)COC(=O)CC(CC(=O)O)c2ccc(O)cc2)CCC13 (stereo unspecified) | 145 to 152 °C
CC(=NO)C(C)(C)NCCN(C)NC(C)(C)C(C)=NO | 130 to 131 °C
O=C/C=C/c1csc(Nc2ccccc2)n1 | 142 to 143 °C
COC1CCC2C3CCc4cc(O)c(C=O)cc4C3CCC12C (stereo unspecified) | 120 to 121 °C
Nc1ncnc2c1c(Cl)cn2COCCO | 149 to 150 °C
CC(C)n1c(=O)c2c(-c3cc(C4CC4)on3)ncn2c2ccccc21 | 247 to 249 °C
CCCCCCCCOc1cc(-c2ccccc2)c(OCC(=O)O)c(-c2ccccc2)c1 | 82 to 84 °C
O=C(c1c[nH]c(=O)[nH]1)c1cccs1 | 339 to 342 °C
CN(C)CCc1[nH]c2ccc(Br)cc2c1CSc1ccccc1 | 112 to 115 °C
O=S1(=O)N=C2CCCN2c2ccc(Oc3cccc(-c4ccco4)c3)cc21 | 186 to 189 °C
O=c1cc(-c2ccc(O)c(CO)c2)oc2cccnc12 | 226 to 227 °C
Ic1nc(-c2ccccn2)[nH]c1I | 177 to 179 °C
Cc1oc(-c2ccccc2)nc1COc1ccc2c(-c3ccccc3)c(COc3nn(-c4ccccc4)cc3C=O)oc2c1 | 176 to 177 °C
CC(=NC#N)N[C@@H]1c2cc(C#N)ccc2OC(C)(C)[C@H]1O (relative stereo) | 236 to 238 °C
Clc1ccc(Cn2cc(CCN=c3sc4ccccc4s3)c3ccccc32)cc1 | 120 to 121 °C
CC1CCNC(C)C1(C)CCCO (stereo unspecified) | 89 to 91 °C
COc1cccc(NC(=O)NC2N=C(C)c3cccc(C)c3N(CC(=O)N3CC4CCC(CC4)C3)C2=O)c1 (stereo unspecified) | 170 to 171 °C
CCCn1nc2c(N)nc3c(c2c1CC(C)C)CCCC3 | 167 to 168 °C
O=C(Nc1ccc2ccc(Cl)nc2n1)c1ccsc1 | 254 °C
Brc1ccc(N2CCN(c3ccncc3)CC2)nc1 | 176 to 180 °C
CCc1nccn1-c1ccccc1C(=O)Nc1ccc(C(=O)N2CCC(F)(F)/C(=C\C(=O)NC3CC3)c3ccccc32)cc1 | > 260 °C
OCc1cccc2c(Cl)c3ccccc3cc12 | 138 to 140 °C
Cc1ccc(Oc2ccc(C=O)cc2)cn1 | 45 to 46 °C
COc1nc(C)nc(NC(=O)NS(=O)(=O)c2sccc2C2OCCO2)n1 | 164 to 166 °C
Cc1ccc(C(=O)Nc2ccc(C)c(-c3nc(N(C)C)nc4c3CNC(=O)N4c3c(F)cccc3F)c2)cc1F | 258 to 264 °C

Compound | melting point
CN1C(=O)CCC2(C)c3ccc(Sc4ccccc4Cl)cc3CCC12 (single isomer, unassigned; (+)) | 123 to 125 °C
CCC(C)(C)c1ccc(OCC(=O)Nc2cccc(C(C)=O)c2)c(C(C)(C)CC)c1 | 135 °C
Cc1ccnc(N2CCN(CCc3c(C)n4c5c(cc([N+](=O)[O-])cc35)CCC4)CC2)c1 | 230 °C
Fc1ccccc1COc1cccnc1NC(=S)Nc1ccc(Cl)cc1 | 141 °C
O=C1c2c(c(=O)n3nc(-c4ccccc4)cc3n2Cc2ccccc2)CN1C1CCCCC1 | 276 to 278 °C
Oc1c(C(=Nc2ccccc2)Nc2ccccc2)sc2ccccc12 | 152 to 153 °C
CC(=O)OC1C(OC(=O)C=Cc2ccccc2)C=C(C)C(=O)CC1(C)C (stereo unspecified) | 138 to 139 °C
CCCCCCCCc1ccc(C(=O)CCCCC(=O)O)cc1 | 96 to 97 °C
CCCCCCCC(=O)ON=C(c1ccccc1)c1cc(C(C)(C)C)c(O)c(C(C)(C)C)c1 | 76.3 to 77.2 °C
CSc1nc2nsc(N)c2s1 | 160 to 166 °C
COc1ccc(S(=O)(=O)n2ccc3ccnc(-c4ccc(N(C)C)cc4)c32)cc1 | 112 to 114 °C
COCCOCc1ccc(-c2ccc(C(=O)Nc3ccc(OC)c(N4CCN(C)CC4)c3)cc2)c(C)c1 | 147 to 148 °C
CCN(CC)CCc1nc(-c2ccc(OC)c(OC)c2)c2cc(OC)c(OC)cc2n1 | 164 to 166 °C
CCN(CC)c1ccc2c(c1)CC(=O)N2 | 122 to 124 °C
COc1ccccc1N1CCN(CCN(C(=O)C2CCCCC2)c2ccccc2N)CC1 | 138 to 140 °C
CC1OC(O)CC(NC(=O)C(F)(F)F)C1(C)O (stereo unspecified) | 110 to 111 °C
CC(C)N(C)S(=O)(=O)NC(=O)c1cc(N)c(F)cc1Cl | 160 to 162 °C
CN(C)c1ccc([N+](=O)[O-])c(C(=O)O)c1 | 185 to 187 °C
C#CCN(C(=O)CN)C(=O)OC | 77 to 80 °C
CCCCCCCCCCC1COc2c(C(=O)OCC)sc(C(=O)OCC)c2O1 (stereo unspecified) | 89 to 90 °C
COC(=O)CC1CC(c2ccc(C#N)nc2)=NO1 (stereo unspecified) | 115 to 116 °C
CO[C@@H](C(=O)N[C@H]1CC[C@@H](OC(=O)C2CCCCCC2)CNC1=O)[C@H](O)[C@@H](O)[C@H](O)/C=C/C(C)(C)C | 84 to 86 °C
CCNC(=O)N(C)C(=O)Nc1ccccc1 | 80.5 to 81.5 °C
